Measured values: ChEMBL document CHEMBL1127186, “Probing a catalytic antibody active site using spin-labelled haptens” (Bioorg Med Chem Lett, 1993)

How the values were obtained:
[1] = Dissociation constant from ESR titration experiments; assay type: physicochemical
[2] = Kinetic parameter of antibody 48G7 in 10 mM Tris HCl, 50 mM NaCl, pH 8.27
[3] = Compound was evaluated for the inhibition of antibody (Antibody 48G7) catalyzed reaction

| Compound | Kd [1] [µM] | Km [2] [µM] | k cat [2] [s⁻¹] | Ki [3] [µM] |
| --- | --- | --- | --- | --- |
| CC1(C)CC(OP(=O)(O)Oc2ccc([N+](=O)[O-])cc2)CC(C)(C)N1[O] | 4.3 |  |  |  |
| COC(=O)CCCC(=O)Oc1ccc([N+](=O)[O-])cc1 |  | 300 | 0.367 |  |
| Cc1cccc(P(=O)(O)O)c1[N+](=O)[O-] [METHYLNITROPHENYLPHOSPHONATE] |  |  |  | 0.56 |
| COC(=O)CCCOC(=O)Oc1ccc([N+](=O)[O-])cc1 |  | 360 | 0.437 |  |
| CC(=O)Oc1ccc([N+](=O)[O-])cc1 |  |  | 0.0633 |  |
| CC1(C)CC(OP(=O)(O)Oc2ccc([N+](=O)[O-])cc2)C(C)(C)N1[O] (stereo not given) | 6.4 |  |  |  |
| COC(=O)Oc1ccc([N+](=O)[O-])cc1 |  | 430 | 0.123 |  |
